Data from PubChem BioAssay AID1845210 (Molecular Pharmacology Branch, DTP, NCI, 2023).

Test system: NCI-H226 complex tumor spheroids, viability
Assay: Anticancer human tumor NCI-H226 cell line growth inhibition;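 note: spheroids exposed to compound for 7 days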;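 for viability, T/C: 100% = DMSO vehicle control viability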
Details: for IC50: curve of first compound; for viability, T/C: stronger effect = lower value
Method in brief: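 Complex tumor spheroids combined malignant cells with endothelial cells and mesenchymal stem cells. DNA-damaging drugs and DNA repair inhibitors were tested alone and in combination, at half-log dilutions down from clinical Cmax (top 10 microM if Cmax unknown), 0.25% DMSO final.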

`CC(C)n1c(=O)n(C)c2cnc3cc(F)c(-c4ccc(OCCCN5CCCCC5)nc4)cc3c21` + Cn1nnc2c(C(N)=O)ncn2c1=O showed an IC50 (second compound 1 µM) of 5.83 µM, an IC50 (second compound 3.16 µM) of 5.92 µM and an IC50 (second compound 10 µM) of 6 µM. The IC50 (second compound 31.6 µM) was 5.72 µM, the IC50 (second compound 100 µM) was > 10 µM and the viability, T/C (second compound 1 µM, first compound 0.0316 µM) was 111%. It also gave a viability, T/C (second compound 1 µM, first compound 0.1 µM) of 115%, a viability, T/C (second compound 1 µM, first compound 0.316 µM) of 120% and a viability, T/C (second compound 1 µM, first compound 1 µM) of 118%. The viability, T/C (second compound 1 µM, first compound 3.16 µM) was 102%, the viability, T/C (second compound 1 µM, first compound 10 µM) was 4.4% and the viability, T/C (second compound 3.16 µM, first compound 0.0316 µM) was 112%. It also gave a viability, T/C (second compound 3.16 µM, first compound 0.1 µM) of 113%, a viability, T/C (second compound 3.16 µM, first compound 0.316 µM) of 114% and a viability, T/C (second compound 3.16 µM, first compound 1 µM) of 102%. The viability, T/C (second compound 3.16 µM, first compound 3.16 µM) was 104%, the viability, T/C (second compound 3.16 µM, first compound 10 µM) was 4.91% and the viability, T/C (second compound 10 µM, first compound 0.0316 µM) was 114%. The viability, T/C (second compound 10 µM, first compound 0.1 µM) was 119%, the viability, T/C (second compound 10 µM, first compound 0.316 µM) was 109% and the viability, T/C (second compound 10 µM, first compound 1 µM) was 114%. For the same molecule, the viability, T/C (second compound 10 µM, first compound 3.16 µM) was 109%, the viability, T/C (second compound 10 µM, first compound 10 µM) was 3.29% and the viability, T/C (second compound 31.6 µM, first compound 0.0316 µM) was 117%. For the same molecule, the viability, T/C (second compound 31.6 µM, first compound 0.1 µM) was 108%, the viability, T/C (second compound 31.6 µM, first compound 0.316 µM) was 110% and the viability, T/C (second compound 31.6 µM, first compound 1 µM) was 99.4%. For the same molecule, the viability, T/C (second compound 31.6 µM, first compound 3.16 µM) was 99.9%, the viability, T/C (second compound 31.6 µM, first compound 10 µM) was 3.07% and the viability, T/C (second compound 100 µM, first compound 0.0316 µM) was 122%. It also gave a viability, T/C (second compound 100 µM, first compound 0.1 µM) of 115%, a viability, T/C (second compound 100 µM, first compound 0.316 µM) of 115% and a viability, T/C (second compound 100 µM, first compound 1 µM) of 117%. For the same molecule, the viability, T/C (second compound 100 µM, first compound 3.16 µM) was 105% and the viability, T/C (second compound 100 µM, first compound 10 µM) was 64%.
